Reference: US20230234967A1, “Fused Azole Heterocycles as AHR Antagonists” (Senda Biosciences, Inc., priority 2021, published 2023)
pIC50: −log10 of the molar value.

Legend:
AHR = biological target: T1, AHR (Homo sapiens, UniProt P35869); assay: DRE-Luciferase Reporter Assay (HepG2 AhR-Lucia reporter cells); type: cell-based; conditions: AHR activating ligand at its EC50, luciferase read-out, read-out: HEPG2 Luc IC50
T1 construct: other cell line with a DRE-luciferase reporter stably transfected; endogenous in cells; host or cells: Human HepG2 liver carcinoma AhR-Lucia reporter cells
T1 sequence (P35869 11-848): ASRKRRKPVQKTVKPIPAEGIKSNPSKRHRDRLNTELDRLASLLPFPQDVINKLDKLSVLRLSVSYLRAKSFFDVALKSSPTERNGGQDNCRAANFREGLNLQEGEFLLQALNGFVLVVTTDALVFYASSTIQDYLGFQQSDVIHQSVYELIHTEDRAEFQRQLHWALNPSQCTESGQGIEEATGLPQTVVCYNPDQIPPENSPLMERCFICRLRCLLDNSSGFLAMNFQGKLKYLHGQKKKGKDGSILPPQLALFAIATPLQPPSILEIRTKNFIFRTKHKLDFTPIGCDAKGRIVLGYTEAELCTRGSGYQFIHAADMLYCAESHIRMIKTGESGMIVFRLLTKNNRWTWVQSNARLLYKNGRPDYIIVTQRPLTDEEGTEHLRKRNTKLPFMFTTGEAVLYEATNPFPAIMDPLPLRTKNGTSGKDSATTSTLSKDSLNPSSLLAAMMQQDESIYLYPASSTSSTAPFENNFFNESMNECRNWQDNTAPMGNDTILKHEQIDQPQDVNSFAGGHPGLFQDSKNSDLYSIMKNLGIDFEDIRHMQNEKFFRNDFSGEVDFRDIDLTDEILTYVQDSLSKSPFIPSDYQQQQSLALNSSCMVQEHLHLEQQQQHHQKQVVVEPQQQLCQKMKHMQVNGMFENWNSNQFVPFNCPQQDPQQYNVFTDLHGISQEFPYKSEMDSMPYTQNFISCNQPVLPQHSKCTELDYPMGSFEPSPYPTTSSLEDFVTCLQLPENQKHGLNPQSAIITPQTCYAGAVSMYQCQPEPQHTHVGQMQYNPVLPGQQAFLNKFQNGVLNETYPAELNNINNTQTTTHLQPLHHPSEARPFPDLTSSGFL
From the text: Example 27: DRE-Luciferase Reporter Assay
AHR binds to Dioxin Responsive Elements (DRE) upstream of genes that it activates. One measure of AHR activity is activation of a reporter gene, such as luciferase, downstream of one or multiple DRE elements. Luciferase activity will reflect activation and inhibition of AHR in the cells expressing his reporter. 20000 Human HepG2 liver carcinoma—AhR-Lucia reporter cells or Human HT29 colon adenocarcinoma—AhR reporter cells or other cell line with a DRE-luciferase reporter stably transfected were plated in Eagle's Minimal Essential Medium, 10% heat-inactivated FBS, 1×non-essential amino acids Pen-Strep (10,000 U/mL) and Normocin (100 ug/mL) in plates (96-well, 384-well or other plates) and incubated overnight at 37° C. in a CO2 incubator and treated with and without AhR antagonists at a log dilution starting at 100 uM.
After 1 hr that cells were plated an AHR activating ligand, such as TCDD, kynurenine, ITE (2-(1H-indole-3-ylcarbonyl)-4-thiazolecarboxylic methyl ester), VAF347, BNF (beta-naphthoflavone), FICZ (6-formylindolo(3,2-b) carbazole) or other AHR ligands at their specific EC50 concentration, were added to the cells with or without AHR antagonist.
Cells were incubated for 24 or 48 hours or another time point and then, supernatant was analyzed for determination of luciferase activity as a read-out of the AHR activation or inhibition. Luciferase was measured with the commercial kit QUANTI-Luc™ assay solution kit from Invivogen following the manufacturer's instructions.
The level of luciferase with only agonist ligand added was the maximum signal while the luciferase with […] was the minimum signal. IC50 values were determined as the concentration which inhibits half of the luciferase activity. “A” indicates an IC50 value less than 100 nM, “B” indicates an IC50 between 100 and 500 nM, “C” indicates an IC50 above 500 nM.

[1] = Hepatocyte Stability Assay, rat hepatocytes; type: in vitro ADME; conditions: cryopreserved rat hepatocytes, read-out: Rat hepatocyte clearance
Experimental: Example 32: Hepatocyte Stability Assay
Preparation of working solutions: 10 mM stock solutions of test compound and positive control were prepared in DMSO. In separate conical tubes, the 10 mM solution of test compound and the positive control were diluted to 100 μM by combining 198 μL of 50% acetonitrile/50% water and 2 μL of 10 mM stock.
Preparation of Hepatocytes: Incubation medium (William's E Medium supplemented with GlutaMAX) and hepatocyte thawing medium were placed in a 37° C. water bath and allowed warming for at least 15 minutes prior to use. A vial of cryopreserved hepatocytes was transferred from storage, ensuring that vials remained at cryogenic temperatures until thawing process ensued. Cells were thawed by placing the vial in a 37° C. water bath and gently shaking the vials for 2 minutes. […] Using an AO/PI Staining, cells were counted and the viable cell density was determined. Cells with poor viability (<75% viability) were determined to be not acceptable for use. […]
Data Analysis: All calculations were carried out using Microsoft Excel. Peak areas were determined from extracted ion chromatograms. In vitro half-life (t1/2) of parent compound was determined by regression analysis of the percent parent disappearance vs. time curve.
The in vitro half-life (in vitro t1/2) was determined from the slope value: […]

| Compound | pIC50 (AHR) | CLint scaled at 1 µM [1] [mL/min/kg] |
| --- | --- | --- |
| Cc1ccccc1-c1ccc2nc(NC(=O)c3ccccn3)sc2n1 [Product 8, N-(5-(o-tolyl)thiazolo[5,4-b]pyridin-2-yl)picolinamide] | > 7.00 |  |
| COc1ccccc1-c1ccc2nc(NC(=O)c3ccccn3)sc2n1 [Product 12, N-(5-(2-methoxyphenyl)thiazolo[5,4-b]pyridin-2-yl)picolinamide] | > 7.00 |  |
| Cc1ccccc1-c1ccc2nc(NC(=O)c3ccnn3C)sc2n1 [Product 15, 1-Methyl-N-(5-(o-tolyl)thiazolo[5,4-b]pyridin-2-yl)-1H-pyrazole-5-carboxamide] | > 7.00 | > 50 |

Second part, the molecule after the results:

| pIC50 (AHR) | CLint scaled at 1 µM [1] [mL/min/kg] | Compound |
| --- | --- | --- |
| > 7.00 |  | CN(C)c1ccccc1-c1ccc2nc(NC(=O)c3ccnn3C)sc2n1 [Product 18, N-(5-(2-(dimethylamino)phenyl)thiazolo[5,4-b]pyridin-2-yl)-1-methyl-1H-pyrazole-5-carboxamide] |
| > 7.00 | > 50 | COc1ccccc1-c1ccc2nc(NC(=O)c3ccnn3C)sc2n1 [Product 25, N-(5-(2-methoxyphenyl)thiazolo[5,4-b]pyridin-2-yl)-1-methyl-1H-pyrazole-5-carboxamide] |
| > 7.00 |  | Cc1ccccc1-c1ccc2nc(NC(=O)N3CCOCC3)sc2n1 [Product 39, N-(5-(o-tolyl)thiazolo[5,4-b]pyridin-2-yl)morpholine-4-carboxamide] |
| > 7.00 |  | Cn1ncnc1C(=O)Nc1cnc2cc(-c3cc(F)ccc3C(F)F)[nH]c2c1 [Product 47] |
